The target in assay [1] is T1, α2A adrenoceptor (Homo sapiens, UniProt P08913).
T1 sequence (P08913 1-465): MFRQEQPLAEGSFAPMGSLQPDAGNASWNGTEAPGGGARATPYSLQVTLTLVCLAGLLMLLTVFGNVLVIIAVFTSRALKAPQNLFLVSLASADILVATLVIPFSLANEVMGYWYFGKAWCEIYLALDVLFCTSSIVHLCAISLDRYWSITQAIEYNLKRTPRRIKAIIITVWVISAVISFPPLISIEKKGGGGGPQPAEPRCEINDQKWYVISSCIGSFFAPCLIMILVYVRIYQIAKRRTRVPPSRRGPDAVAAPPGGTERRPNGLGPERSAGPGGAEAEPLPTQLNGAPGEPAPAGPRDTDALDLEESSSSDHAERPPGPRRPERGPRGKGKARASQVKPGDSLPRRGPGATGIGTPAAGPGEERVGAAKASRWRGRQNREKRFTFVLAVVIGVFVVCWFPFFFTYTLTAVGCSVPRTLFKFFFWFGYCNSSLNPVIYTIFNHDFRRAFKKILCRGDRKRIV
The assay is described as follows: G protein activation BRET assay in transfected HEK-293T cells. The settings on record: for EC50: read-out: Potency (EC50) G protein activation. Type of assay: cell-based.

The target of assay [2] is T2, α2C adrenoceptor (Homo sapiens, UniProt P18825).
T2 sequence (P18825 1-462): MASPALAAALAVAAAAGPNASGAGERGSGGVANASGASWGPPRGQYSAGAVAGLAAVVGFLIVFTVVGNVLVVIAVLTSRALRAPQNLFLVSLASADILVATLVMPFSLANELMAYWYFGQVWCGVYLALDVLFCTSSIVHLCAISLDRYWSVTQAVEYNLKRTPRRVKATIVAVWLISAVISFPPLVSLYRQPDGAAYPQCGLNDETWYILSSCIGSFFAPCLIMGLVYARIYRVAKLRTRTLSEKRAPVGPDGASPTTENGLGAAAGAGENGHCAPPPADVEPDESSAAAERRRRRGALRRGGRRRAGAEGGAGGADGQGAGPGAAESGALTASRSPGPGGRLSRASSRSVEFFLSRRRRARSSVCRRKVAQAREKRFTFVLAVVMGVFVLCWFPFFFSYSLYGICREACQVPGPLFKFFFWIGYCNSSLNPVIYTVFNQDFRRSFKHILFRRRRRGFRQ
Described as above. Type of assay: cell-based.

Assay [3] deals with T2, α2C adrenoceptor.
Assay [4] addresses T1, α2A adrenoceptor.
Assay [5] concerns the target α2 adrenoceptors (striatum, α2A and α2C). The assay can be described thus: [3H]RX821002 binding. Set-up: species or system sheep.
Assay [6] concerns the target α2 adrenoceptors (cortex, mostly α2A) (Ovis aries, UniProt A0ACI6PY47). The assay can be described thus: [3H]RX821002 binding. Also on record: species or system sheep.
The target in the next assay is T3, human D4 receptor (Homo sapiens, UniProt P21917).
T3 sequence (P21917 1-419): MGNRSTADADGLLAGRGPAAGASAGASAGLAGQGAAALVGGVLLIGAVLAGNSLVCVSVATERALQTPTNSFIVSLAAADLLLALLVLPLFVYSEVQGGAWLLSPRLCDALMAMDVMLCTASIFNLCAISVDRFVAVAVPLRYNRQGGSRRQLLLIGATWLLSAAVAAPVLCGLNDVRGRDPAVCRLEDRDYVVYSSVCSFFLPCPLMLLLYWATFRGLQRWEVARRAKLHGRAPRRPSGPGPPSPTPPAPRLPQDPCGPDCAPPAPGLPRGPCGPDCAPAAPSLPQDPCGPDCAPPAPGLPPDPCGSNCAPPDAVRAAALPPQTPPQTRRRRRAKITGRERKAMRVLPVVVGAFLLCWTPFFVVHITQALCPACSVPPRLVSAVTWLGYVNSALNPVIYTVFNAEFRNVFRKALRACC
Type of assay: binding. The settings on record: HEK-293T membranes, up to 10 μM; data not shown.

The next assay addresses human D3 receptor (Homo sapiens, UniProt P35462). Type of assay: binding. As to conditions: HEK-293T membranes, up to 10 μM; data not shown.
The target of a further assay is D2-like receptors (Ovis aries, UniProt A0ACI6R699). The assay can be described thus: [3H]YM-09151-2 competition binding, sheep brain striatum. The settings on record: sheep striatal membranes; any concentration up to 10 μM.
The target of another assay is human D2 receptor (Homo sapiens, UniProt P14416). Format: binding. As to conditions: HEK-293T membranes, up to 10 μM; data not shown.
Assay [7] addresses T1, α2A adrenoceptor. The assay can be described thus: ERK1/2 phosphorylation in CHO cells transfected with α2A-RLuc8 receptor. Format: cell-based. The settings on record: 5 minutes; for MAPK activation (ERK1/2 phosphorylation): 1 μM.
Assay [8] deals with T1, α2A adrenoceptor. The assay is described as follows: DMR label-free assay in CHO cells transfected with α2A-RLuc8 receptor. Format: cell-based. The settings on record: for DMR response: at 300 nM, Fig. 6 legend: 100 nM.
A further assay has as its target D2-like receptor D2L. The settings on record: read-out: EC50 values, G protein activation, across Gi/o protein subtypes; cited from earlier work.
Assay [9] concerns the target T2, α2C adrenoceptor. The assay can be described thus: cell-based.
The mark [10] stands for this setting: read-out: KDB1, striatum, vs [3H]RX821002, two-state dimer model, first protomer.
Setting [11] is: read-out: KDB1, cortex, vs [3H]RX821002, two-state dimer model, first protomer.
Setting [12] is: read-out: KDB2, cortex, vs [3H]RX821002, two-state dimer model, second protomer.
The mark [13] stands for this setting: read-out: KDB2, striatum, vs [3H]RX821002, two-state dimer model, second protomer.

Several values for one entry are separate records, joined by “and”; a condition that tells them apart may be missing. Equal entries are not always repeated. Structures can show the parent of a compound that is named as a salt. Where two headings read alike, the source gives them in different places.

Chain of human D2 receptor (P14416 whole entry): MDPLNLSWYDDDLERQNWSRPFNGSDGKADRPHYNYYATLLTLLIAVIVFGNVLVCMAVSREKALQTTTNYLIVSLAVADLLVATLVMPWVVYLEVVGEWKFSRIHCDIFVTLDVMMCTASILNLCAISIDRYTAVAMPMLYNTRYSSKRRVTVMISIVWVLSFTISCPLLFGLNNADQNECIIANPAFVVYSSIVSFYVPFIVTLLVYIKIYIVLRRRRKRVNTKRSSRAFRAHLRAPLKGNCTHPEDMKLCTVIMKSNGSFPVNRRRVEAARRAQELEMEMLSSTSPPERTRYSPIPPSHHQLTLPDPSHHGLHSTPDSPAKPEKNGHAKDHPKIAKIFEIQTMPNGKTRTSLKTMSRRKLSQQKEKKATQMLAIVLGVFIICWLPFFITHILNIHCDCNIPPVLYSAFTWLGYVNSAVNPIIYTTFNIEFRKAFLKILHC
Chain of human D3 receptor (P35462 whole entry): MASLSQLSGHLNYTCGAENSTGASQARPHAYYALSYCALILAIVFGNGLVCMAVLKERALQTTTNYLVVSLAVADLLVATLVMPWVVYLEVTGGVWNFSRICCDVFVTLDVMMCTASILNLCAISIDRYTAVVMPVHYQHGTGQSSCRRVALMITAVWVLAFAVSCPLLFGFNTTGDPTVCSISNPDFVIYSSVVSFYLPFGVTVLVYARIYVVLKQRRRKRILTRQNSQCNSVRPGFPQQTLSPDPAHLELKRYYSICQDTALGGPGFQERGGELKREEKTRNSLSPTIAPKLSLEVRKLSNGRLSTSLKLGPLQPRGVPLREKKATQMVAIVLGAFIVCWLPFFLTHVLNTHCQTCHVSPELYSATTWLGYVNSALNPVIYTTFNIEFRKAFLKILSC

Take `COC(=O)[C@@H]1[C@H]2C[C@H]3c4[nH]c5ccccc5c4CCN3C[C@@H]2CC[C@@H]1O` [yohimbine, yohimbine hydrochloride]: the “blockade of Gαo1 activation induced by 10 μM 7-OH-PIPAT or 10 μM quinpirole” value at α2A adrenoceptor [1] and at α2C adrenoceptor [2] was “completely blocked” in each case. The “blockade of Gi/o-dependent effects of NE and DA on adenylyl cyclase” value at α2C adrenoceptor [3] (yohimbine 10 μM) and on α2A adrenoceptor [4] (yohimbine 10 μM) was “blocked” each time.

`COC1(C2=NCCN2)COc2ccccc2O1` (stereo not shown) [[^3H]RX821002]: the Kd was found to be 0.07 ± 0.01 nM in [5] (read-out: affinity value (KDA1) of the radioligand, saturation experiments, striatal tissue, n=4-8) and 0.06 ± 0.01 nM in assay [6] (read-out: affinity value (KDA1) of the radioligand, saturation experiments, cortical tissue, n=4-8).

As to `COC1(C2=NCCN2)COc2ccccc2O1` (stereo not shown) [RX821002], the “displacement of [3H]YM-09151-2 binding” value on human D4 receptor is recorded as “identical results”; on human D3 receptor, “identical results”; at D2-like receptors, “did not displace”; at human D2 receptor, “identical results”.

Take `Cc1ncc(CN2CC=C(c3ccccc3)CC2)c(N)n1.Cl.Cl` [RO-105824, RO-105824 dihydrochloride]: the Kd was found to be 0.42 nM in [5] (setting [10]), 0.055 nM in [6] (setting [11]) and 4000 nM in [6] (setting [12]). The “G protein activation (agonist effect)” value on α2A adrenoceptor [1] (α2A, Gαi2 and Gαi3) was “small efficacy”; on α2A adrenoceptor [1] (α2A, Gαi/o subtypes other than Gαi2 and Gαi3), “did not produce a significant activation”; on α2C adrenoceptor [2] (α2C, any of the Gαi/o subtypes), “did not produce a significant activation”. Further, the “inhibition of the agonistic effect of clonidine (1 μM)” value at α2A adrenoceptor [1] (α2A, Gαo1) is “did counteract”; on α2C adrenoceptor [2] (α2C, Gαo1), “did counteract”. The “MAPK activation (ERK1/2 phosphorylation)” value at α2A adrenoceptor [7] is on record as “able to produce MAPK activation”. Also, the DMR response entry at α2A adrenoceptor [8] was “substantially lower”.

Turning to `CCCN(C/C=C/I)C1CCc2ccc(O)cc2C1` (stereo not shown) [7-OH-PIPAT, 7-OH-PIPAT maleate], the results for the Kd in assay [5] (setting [10]), in assay [6] (setting [11]) and in [6] (setting [12]) were 51 nM, 9 nM and 430 nM, respectively. The “Efficacy (Emax) G protein activation” value on α2A adrenoceptor [1] (Gαi1, α2A) is reported as 94 ± 6 percentage of NE values; on α2A adrenoceptor [1] (Gαi2, α2A), 55 ± 2 percentage of NE values; on α2A adrenoceptor [1] (Gαi3, α2A), 71 ± 6 percentage of NE values; on α2A adrenoceptor [1] (Gαo1, α2A), 81 ± 9 percentage of NE values; at α2A adrenoceptor [1] (Gαo2, α2A), 85 ± 4 percentage of NE values; at α2C adrenoceptor [2] (Gαi1, α2C, ND: not detectable) it was 41 ± 1 percentage of NE values. Moreover, the “Efficacy (Emax) G protein activation” value is 90 ± 20 percentage of NE values at α2C adrenoceptor [2] (Gαi2, α2C); 90 ± 10 percentage of NE values on α2C adrenoceptor [2] (Gαi3, α2C); 98 ± 7 percentage of NE values on α2C adrenoceptor [2] (Gαo1, α2C); 106 ± 3 percentage of NE values at α2C adrenoceptor [2] (Gαo2, α2C). Besides, the EC50 on α2A adrenoceptor [1] (Gαo1, α2A) is 100 ± 20 nM; at α2A adrenoceptor [1] (Gαo2, α2A), 66 ± 7 nM; at α2C adrenoceptor [2] (read-out: Potency (EC50) G protein activation, Gαi3, α2C), 5 ± 3 nM. On α2A adrenoceptor [7], the “MAPK activation (ERK1/2 phosphorylation)” value is given as “able to produce MAPK activation”. In addition, the DMR response result on α2A adrenoceptor [8] is “significant response”. For the same compound, in assay [6] (cortex, vs [3H]RX821002), the “DCB (cooperativity index)” value is “DCB: -1.1”.

On to `NCCc1ccc(O)c(O)c1` [DA, Dopamine hydrochloride], for which the figures for the Kd in assay [5] (setting [10]) and in [5] (setting [13]) were 6 nM and 1000 nM, respectively. In addition, at D2-like receptor D2L, the EC50 is 130 to 400 nM.

As to `CC1c2ccccc2CN1CC1=NCCN1` (stereo not shown) [BRL 44408], at α2A adrenoceptor [8] (BRL 44408 1 μM, 30 minutes pretreatment), the “effect on DA and NE activation of DMR” value was “decreased”.

For `Clc1cccc(Cl)c1N=C1NCCN1` [Clonidine, clonidine hydrochloride], the Kd in assay [5] (setting [10]) is 0.036 nM; in assay [5] (setting [13]) it was 20 nM. On α2A adrenoceptor [1], the “Efficacy (Emax) G protein activation” value is 110 ± 10 percentage of NE values and 120 ± 2 percentage of NE values and 120 ± 5 percentage of NE values and 89 ± 6 percentage of NE values and 112 ± 8 percentage of NE values.

Regarding `NC[C@H](O)c1ccc(O)c(O)c1` [NE, L-(-)-norepinephrine (+)-bitartrate salt monohydrate], the “Efficacy (Emax) G protein activation” value was 100 ± 5 percentage of NE values at α2A adrenoceptor [1] (Gαi1, α2A); 100 ± 10 percentage of NE values at α2A adrenoceptor [1] (Gαi2, α2A); 100 ± 10 percentage of NE values at α2A adrenoceptor [1] (Gαi3, α2A); 100 ± 7 percentage of NE values on α2A adrenoceptor [1] (Gαo1, α2A); 100 ± 9 percentage of NE values at α2A adrenoceptor [1] (Gαo2, α2A); 100 ± 2 percentage of NE values at α2C adrenoceptor [2] (Gαi1, α2C, ND: not detectable). Further, the “Efficacy (Emax) G protein activation” value on α2C adrenoceptor [2] (Gαi2, α2C) was 100 ± 7 percentage of NE values; on α2C adrenoceptor [2] (Gαi3, α2C) it was 100 ± 9 percentage of NE values; on α2C adrenoceptor [2] (Gαo1, α2C), 100 ± 10 percentage of NE values; on α2C adrenoceptor [2] (Gαo2, α2C), 100 ± 8 percentage of NE values. Further, the EC50 was 0.4 ± 0.2 nM on α2C adrenoceptor [2] (Potency (EC50) G protein activation, Gαi3, α2C) and 7 ± 4 nM at α2C adrenoceptor [9]. Moreover, at α2A adrenoceptor [7] (300 nM), the “increase of ERK1/2 phosphorylation levels” value was determined as 3 fold over basal. Besides, the “Gs activation (inverted U-shaped curve, high ligand concentrations)” value at α2C adrenoceptor [3] (at 10 and 100 μM) was “promoted Gs activation”; on α2A adrenoceptor [4] (at 10 and 100 μM) it was “promoted Gs activation”.
